Experiments:
[1] = Stability study at 70° C./75% RH (XRPD physical stability, HPLC purity); assay type: physicochemical; conditions: 70° C. at 75% relative humidity
Excerpt: FIG. 54 is a plot of x-ray powder diffraction pattern taken of crystalline obicetrapib hemicalcium, and FIG. 55 is a plot of x-ray powder diffraction patterns taken of crystalline obicetrapib hemicalcium under stress conditions. In FIG. 55, there are four diffraction patterns shown based on stability study set forth in Example 11.27. Pattern 1 is an x-ray powder diffraction pattern of a sample of amorphous obicetrapib hemicalcium. Pattern 2 is the x-ray powder diffraction pattern of a sample of crystalline obicetrapib hemicalcium. In pattern 3, the sample of crystalline obicetrapib hemicalcium was exposed to 70° C. at 75% relative humidity for one day. […] Pattern 1 was taken before the sample was placed on stability.
Stability study was conducted on crystalline and amorphous forms of obicetrapib at 70° C./75% relative humidity (RH). The solids were placed into a 4.0 ml glass vial without caps (open condition) and stored at 70° C./75% RH. Samples were pulled out of the stability chamber at day 1 (24 hours) and at 7-day time point. The solids were analyzed by XRPD for physical stability and by HPLC for chemical purity. The sample collected at each time point was dissolved in methanol before HPLC analysis. In order to minimize the effect of potential analyte adsorption on the filter, the initial 0.5 mL of supernatant passing through the filter was discarded prior to collecting sample for HPLC analysis. Purity for each sample was determined based on peak area percent and compared to the sample at T=0.

[2] = Moisture uptake at high relative humidity (hygroscopicity); assay type: physicochemical; conditions: relative humidities approaching 90%
Excerpt: When exposed to relative humidities approaching 90%, moisture uptake has been measured to be typically less than about 5% for example. […] Other drawbacks commonly associated with manufacturing and using amorphous materials are similarly not present. For example, amorphous materials are often challenging to make chemically pure.

LDL-C [3] = conditions: cited from earlier work
[4] = in water; cited from earlier work
LDL-C [5] = test: ROSE2 phase 2b clinical trial - LDL-C; assay type: in vivo, human; conditions: ROSE2; ezetimibe added on top of obicetrapib
Experimental: The primary objective of this study is to evaluate the effect of obicetrapib 10 mg+ezetimibe 10 mg combination therapy compared with placebo, when used as an adjunct to high-intensity statin therapy, on LDL-C at Day 84.
The secondary objectives of this study include the following, in hierarchical order: • To evaluate the effect of obicetrapib 10 mg monotherapy compared with placebo, when used as an adjunct to high-intensity statin therapy, on LDL-C at Day 84; • To evaluate the effect of obicetrapib 10 mg+ezetimibe 10 mg combination therapy compared with placebo, when used as an adjunct to high-intensity statin therapy, on ApoB at Day 84; and • To evaluate the effect of obicetrapib 10 mg monotherapy compared with placebo, when used as an adjunct to high-intensity statin therapy, on ApoB at Day 84.
This study will be a placebo-controlled, double-blind, randomized, Phase 2 study to evaluate the efficacy, safety, and tolerability of obicetrapib 10 mg, both in combination with ezetimibe 10 mg and as monotherapy, as an adjunct to high-intensity statin therapy. This study will take place at approximately 20 sites in the United States.
Up to 2 weeks after the Screening Visit, participants will return to the site on Day 1 (Visit 2) and confirm study eligibility before being randomized and beginning treatment. Approximately 114 eligible participants (38 participants per treatment group) will be randomized in a 1:1:1 ratio to 1 of the following treatment groups: • Combination therapy: Obicetrapib 10 mg+ezetimibe 10 mg (administered as one 10 mg obicetrapib tablet and one 10 mg ezetimibe capsule); • Obicetrapib monotherapy: Obicetrapib 10 mg (administered as one 10 mg obicetrapib tablet and 1 placebo capsule); or • Placebo (administered as 1 placebo tablet and 1 placebo capsule).
During the 12-week Treatment Period, the assigned study drugs will be administered by the participants orally with water, once daily on Day 1 to Day 84 at approximately the same time each morning. Participants will return to the site on Day 28 (+2 days), Day 84 (+2 days), and Day 112 (+2 days) for efficacy, safety, and pharmacokinetic (PK) assessments. Participants, Investigators, the Clinical Research Organization (CRO), and the Sponsor will be blinded to all lipid results from Day 1 (Visit 2) for the first participant until all enrolled participants complete the Day 84 (End of Treatment) visit or are withdrawn from the study, in order to protect blinding to treatment assignment.
The primary efficacy endpoint is the percent change from Day 1 to Day 84 in LDL-C for the obicetrapib 10 mg+ezetimibe 10 mg combination treatment group compared with the placebo group.
The secondary efficacy endpoints include the following, in hierarchical order: • Percent change from Day 1 to Day 84 in LDL-C for the obicetrapib 10 mg monotherapy • treatment group compared with the placebo group; • Percent change from Day 1 to Day 84 in ApoB for the obicetrapib 10 mg+ezetimibe 10 mg • combination treatment group compared with the placebo group; and • Percent change from Day 1 to Day 84 in ApoB for the obicetrapib 10 mg monotherapy treatment group compared with the placebo group.
The exploratory efficacy endpoints include the following: • Percent change from Day 1 to Day 84 in non-HDL-C, VLDL-C, HDL-C, TG, ApoE, Lp(a), and HDL-ApoE for the obicetrapib 10 mg+ezetimibe 10 mg combination treatment group compared with the placebo group and for the obicetrapib 10 mg monotherapy treatment group compared with the placebo group; and • Proportion of participants at Day 84 that achieve LDL-C<2.6 mmol/L (<100 mg/dL), LDL-C<1.8 mmol/L (<70 mg/dL), and LDL-C<1.3 mmol/L (<50 mg/dL) for the obicetrapib 10 mg+ezetimibe 10 mg combination treatment group compared with the placebo group and for the obicetrapib 10 mg monotherapy treatment group compared with the placebo group. […]

[6] = Kinetic solubility in FeSSIF (pH 5.0) at 37° C.; assay type: physicochemical; conditions: FeSSIF pH 5.0, 37° C., as obicetrapib free acid
Excerpt: (§1) The amorphous form has a higher kinetic solubility and dissolution rate than the crystalline form (and by extension obicetrapib itself). Both crystalline and amorphous obicetrapib hemicalcium kinetic solubility determinations were made in biorelevant media at different pHs, namely at about 5.0 (FeSSIF conditions) and at pH of about 6.5 (FaSSIF) conditions as set forth in Example 11.28.
The concentrations in Table W are those of obicetrapib (i.e., the free acid).
(§2) The solids were magnetically stirred at 600 RPM in a shaker bath and samples were drawn with a 1.0 ml syringe at T=15 mins, 30 mins, 60 mins, 90 mins and 120 mins. The solubility was measured using HPLC method provided by the client. The compound was added to 4.0 ml glass vials at approximately 20.0 mg/ml. Samples were agitated with a vortex mixer for about 5 minutes to ensure the presence of undissolved excess powder. The sample collected at each time point was centrifuged at 1200 RPM, filtered with 0.45 μm Polytetrafluoroethylene (PTFE) filters and diluted with methanol before HPLC analysis. In order to minimize the effect of potential analyte adsorption on the filter, the initial 0.5 mL of supernatant passing through the filter was discarded prior to collecting sample for HPLC analysis.

[7] = Kinetic solubility in FaSSIF (pH 6.5) at 37° C.; assay type: physicochemical; conditions: FaSSIF pH 6.5, 37° C., as obicetrapib free acid
Excerpt: as §1
The concentrations in Table X are those of obicetrapib (i.e., the free acid).
as §2

Compound	physical stability by x-ray powder diffraction ([1]; 7 days)	physical stability by x-ray powder diffraction ([1]; 14 days)	moisture uptake [2]	incremental reduction in LDL-C levels (LDL-C [3]; ezetimibe in combination with statins (Catapano et al. 2016))	LDL-C levels reduced (LDL-C [3]; ezetimibe mono-therapy, hyperlipidemic patients (Catapano et al. 2016))	mean reduction in LDL-C compared with placebo (LDL-C [3]; ezetimibe monotherapy, hypercholesterolemia, meta-analysis of 8 randomized studies)	greater reduction in LDL-C compared with statin alone (LDL-C [3]; statin and ezetimibe in combination, meta-analysis of 27 studies)	solubility [4]	additional/incremental (median) reduction of LDL-C (LDL-C [5])	physical stability by x-ray powder diffraction ([1]; one day)	Concentration in Solution ([6]; 15 mins)	Concentration in Solution ([6]; 30 mins)	Concentration in Solution ([6]; 60 mins)	Concentration in Solution ([6]; 90 mins)	Concentration in Solution ([6]; 120 mins)	Concentration in Solution ([7]; 15 mins)	Concentration in Solution ([7]; 30 mins)	Concentration in Solution ([7]; 60 mins)	Concentration in Solution ([7]; 90 mins)	Concentration in Solution ([7]; 120 mins)
CCOC(=O)N1c2ccc(C(F)(F)F)cc2[C@@H](N(Cc2cc(C(F)(F)F)cc(C(F)(F)F)c2)c2ncc(OCCCC(=O)O)cn2)C[C@H]1CC [amorphous obicetrapib hemicalcium]	remained amorphous	remained amorphous	less than 5%																	
O=C1[C@H](CC[C@H](O)c2ccc(F)cc2)[C@@H](c2ccc(O)cc2)N1c1ccc(F)cc1 [Ezetimibe, (3R,4S)-1-(4-fluorophenyl)-3-[(3S)-3-(4-fluorophenyl)-3-hydroxypropyl]-4-(4-hydroxyphenyl)azetidin-2-one]				15-20%	15-22%	18.58%	15.1%	practically insoluble	about 32%											
CCOC(=O)N1c2ccc(C(F)(F)F)cc2[C@@H](N(Cc2cc(C(F)(F)F)cc(C(F)(F)F)c2)c2ncc(OCCCC(=O)[O-])cn2)C[C@H]1CC.CCOC(=O)N1c2ccc(C(F)(F)F)cc2[C@@H](N(Cc2cc(C(F)(F)F)cc(C(F)(F)F)c2)c2ncc(OCCCC(=O)[O-])cn2)C[C@H]1CC.[Ca+2] [Crystalline obicetrapib hemicalcium, reference compound]	the result remains the same									near total loss of crystallinity	85 µg/mL	169 µg/mL	369 µg/mL	453 µg/mL	529 µg/mL	30 µg/mL	48 µg/mL	84 µg/mL	107 µg/mL	144 µg/mL

Reference: patent publication US20250186442A1, “Obicetrapib and Ezetimibe Combination Treatment and Fixed Dose Pharmaceutical Compositions” (NewAmsterdam Pharma B.V., priority 2022, published 2025)
